Consider four compounds from US5948886A, “Acylated enol derivatives of α-ketoesters and α-ketoamides” (Hoechst Marion Roussel, Inc., priority 1997, dated 1999).

The target of assay [1] is T1, Elastase (Homo sapiens, UniProt P08246).
T1 construct: Elastase is isolated from human sputum; from tissue; host or cells: human sputum
T1 sequence (P08246 30-267): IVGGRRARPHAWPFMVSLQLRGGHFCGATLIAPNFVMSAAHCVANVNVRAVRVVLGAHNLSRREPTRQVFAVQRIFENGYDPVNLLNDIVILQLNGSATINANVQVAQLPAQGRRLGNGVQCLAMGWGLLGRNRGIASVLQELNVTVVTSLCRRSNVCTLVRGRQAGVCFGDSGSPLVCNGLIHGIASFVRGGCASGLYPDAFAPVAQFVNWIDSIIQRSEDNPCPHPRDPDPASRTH
The assay is described as follows: In vitro assay of elastase with chromogenic substrate N-MeOSuc-Ala-Ala-Pro-Val-p-nitroanilide, no esterase. The class given is biochemical. As to conditions: for rate of hydrolysis of the substrate (no inhibitor or prodrug added = 100%): without esterase; for Ki: parent (liberated) drug itself, read-out: Ki measured / determined independently. Here is the method:
(§1) Elastase was assayed in vitro using the chromogenic substrate N-MeOSuc-Ala-Ala-Pro-Val-p-nitroanilide ([S]=0.20 mM; Km=0.16 mM), available commercially. The assay techniques are similar to those described by Mehdi, et al., Biochemical and Biophysical Research Communications, 166, 595 (1990). The assay mixture consists of partially purified elastase and substrate (0.2 mM) in 0.1 M HEPES (pH 7.5), 0.5 M NaCl, 10% DMSO and 0.1% Brij 35. The reaction (1 or 2 mL, in a plastic cuvette) is maintained at 37° C. and the hydrolysis of the substrate is followed in the presence of MDL 104,569 and 5 units/mL of porcine liver esterase (Sigma Chemical Co., cat. no. E-3128). Elastase is isolated from human sputum, although recently it has become commercially available. The rate of hydrolysis of the substrate with no inhibitor or prodrug added is assigned 100%. In the presence of 1 μM MDL 104,569, a rate of 81% was obtained; when esterase ([…], Sigma Chemical Co.) was also present, the rate decreased to 24%.
(§2) Elastase was assayed in vitro in the presence of MDL 105,565 using the techniques and procedures described in Example 18. With MDL 105,565, at a concentration of 10 nM, a rate of 99% was obtained; when esterase was added, this rate was 76%. At a concentration of 45 nM, the rates were 94% (without esterase) and 37% (with esterase).

Assay [2] concerns the target T1, Elastase. Kind of assay: In vitro assay of elastase in the presence of the prodrug and porcine liver esterase. The class given is biochemical. Here is the method: as §1, §2

Consider `COC(=O)CCC(=O)N[C@@H](C)C(=O)N[C@@H](C)C(=O)N1CCC[C@H]1C(=O)NC(=C(OC(C)=O)C(=O)OC)C(C)C` (mixture of isomers) [MDL 104,569, L-Prolinamide, N-(4-methoxy-1,4-dioxobutyl)-L-alanyl-L-alanyl-N-[2-(acetyloxy)-3-methoxy-1-(1-methylethyl)-3-oxo-1-propenyl]-, (E)- and (Z)-mixture], for which the “rate of hydrolysis of the substrate (no inhibitor or prodrug added = 100%)” value at Elastase [1] (1 μM compound, substrate 0.2 mM, pH 7.5, 37° C.) is reported as 81%; on Elastase [2] (1 μM compound, esterase also present), 24%.

Consider `COC(=O)C(=O)C(NC(=O)C1CCCN1C(=O)C(NC(=O)c1ccc(C(=O)NS(=O)(=O)c2ccc(Cl)cc2)cc1)C(C)C)C(C)C` (stereo not drawn) [liberated drug, reference compound], for which the Ki at Elastase [1] was 2 nM; at Elastase [2] (drug liberated from MDL 105,565 by esterase in the assay, read-out: Ki of the liberated drug, calculated), 13 nM.

`COC(=O)CCC(=O)NC(C)C(=O)NC(C)C(=O)N1CCCC1C(=O)NC(C(=O)C(=O)OC)C(C)C` (stereo not drawn) [parent drug, MeOSuc-Ala-Ala-Pro-Val-CO2 CH3, reference compound]: the Ki at Elastase [1] was 200 nM.

With `COC(=O)/C(OC(C)=O)=C(\NC(=O)[C@@H]1CCCN1C(=O)[C@@H](NC(=O)c1ccc(C(=O)NS(=O)(=O)c2ccc(Cl)cc2)cc1)C(C)C)C(C)C` [MDL 105,565, L-Prolinamide, N-[4-[[[(4-chlorophenyl)sulfonyl]amino]carbonyl]benzoyl]-L-valyl-N-[2-(acetyloxy)-3-methoxy-1-(1-methylethyl)-3-oxo-1-propenyl]-, (E)], the “rate of hydrolysis of the substrate (no inhibitor or prodrug added = 100%)” value at Elastase [1] (10 nM compound) is 99%; on Elastase [1] (45 nM compound), 94%; on Elastase [2] (10 nM compound, esterase added) it was 76%; on Elastase [2] (45 nM compound, with esterase) it was 37%.
